The values that follow come from patent US6919464B1, “Synthetic derivatives of 21-butenyl and related spinosyns” (Dow AgroSciences LLC, priority 2001, dated 2005).

Type in all cases: in vivo
Data set [1] relates to Heliothis virescens. Kind of data set: Tobacco Budworm (Heliothis virescens) topical assay. As for the experimental part:
An additional measure of the relative insecticidal activities of the compounds of the invention was generated by using a 1 ug/ul acetone solution of each compound applied at 1 ug/larva of laboratory-reared Heliothis virescens larvae (mean weight of 22 mg). Each compound was applied along the dorsum of each of six larvae. Treated larvae were then held for two days at 21° C., 60% RH in six-well plastic culture plates. Larvae were each supplied with a 1 cm^3 of agar-based lepidoptera diet for sustenance during the two-day post-exposure interval. Percent mortality was determined at the end of a two-day period.

The subject of data set [2] is Heliothis virescens. Kind of data set: Tobacco Budworm (Heliothis virescens) feeding assay, cotton leaf-dip. To be noted: second instar larvae. From the text: To compare insecticidal activities of compounds of the invention against second instar larval Heliothis virescens leaf-dip bioassay was used. Cotton cotyledon leaves were dipped in a test solution made up of the compound dissolved in acetone: Millipore water (2:1) at rates of 400 ppm to 1.56 ppm. Each cotyledon was placed individually on top of a moistened (distilled water) cotton ball in the bottom of a 1 oz plastic cup and allowed to dry (one hour). After drying, a single laboratory-reared second instar Heliothis virescens larva (mean weight 15 mg.) was placed on the treated leaf and the cup sealed with a lid, and held at 27° C. for four days. Percent mortality was determined at the end of the holding period.

The test system of the next data set is Aphis gossypii. Nature of the data set: Cotton Aphid (Aphis gossypii) assay, spray on squash seedlings. To be noted: rate 50 ppm, relative to plants sprayed with solvent only; for mortality at 50 ppm: Aphis gossypii, 72 h. The procedure:
Insecticidal activities of the compounds of the invention were also evaluated against cotton aphids (Aphis gossyppi) as follows. Summer crookneck squash seedlings at the expanded cotyledon stage are primed to a single cotyledon and infested with cotton aphids 16-24 hours before application of the test material by transfer of infested foliage cut from a stock colony. Immediately prior to spray application of the test material, the transfer foliage is removed from the squash plants. The test material is dissolved at 1 mg/ml in 90:10 acetone:alcohol, then diluted in water containing 0.05% Tween 20 (polyethylene (20) sorbitan monolaurate) to give test solution at a concentration of 50 ppm. The plants were sprayed with the test solution using an atomizing sprayer at 17 psi. Both surfaces of the cotyledons are covered until runnoff, and then allowed to dry. Activity of the compound was determined at three days after treatment. Activity was rated as a percent based on the number of aphids present in plants sprayed with solvent only.

The mark [3] stands for this setting: Heliothis virescens, rate 400 ppm, 96 h.

“5,6,22,23-tetrahydro-for-(3′,4′-methylenedioxyrham)-I [Compound A26]”: the “Tobacco Budworm Typical (48 h) Mortality (%)” value (“Tobacco Budworm Typical … (%)” below) with Heliothis virescens [1] (in vivo) was found to be 83%.
One may read the mortality as the share of the test organisms that died. A higher mortality goes with fewer survivors. Compound `CC/C=C/[C@H]1CCC[C@H](OC2CC[C@H](N(C)C)[C@@H](C)O2)[C@@H](C)C(=O)C2=CC3C(C=CC4C[C@@H](O[C@@H]5O[C@@H](C)[C@H](OC)[C@@H](OC)[C@H]5OCC)CC43)C2CC(=O)O1` (stereo partly shown) [Compound A1, for-(2′-O-ethylrham)-I] showed a mortality at 1.56 ppm in the data set on Heliothis virescens [2] (Heliothis virescens, rate 1.56 ppm, 96 h) of 100%. In the data set on Aphis gossypii, this compound gave a mortality at 50 ppm of 87%.
Consider `CC/C=C/[C@H]1CCC[C@H](OC2CC[C@H](N(C)C)[C@@H](C)O2)[C@@H](C)C(=O)C2=CC3C(C=CC4C[C@@H](O[C@@H]5O[C@@H](C)[C@H](OCC)[C@@H](OCC)[C@H]5OC)CC43)C2CC(=O)O1` (stereo partly shown) [Compound A3, for-(3′,4′-bis-O-ethylrham)-I], for which the “Tobacco Budworm Typical … (%)” value with Heliothis virescens [1] (in vivo) is given as 67%.
In the data set with Heliothis virescens [2] (setting [3]), `CCOC(C)/C=C/[C@H]1CCC[C@H](OC2CC[C@H](N(C)C)[C@@H](C)O2)[C@@H](C)C(=O)C2=CC3C(C=CC4C[C@@H](O[C@@H]5O[C@@H](C)[C@H](OC)[C@@H](OC)[C@H]5OC)CC43)C2CC(=O)O1` (stereo partly shown) [Compound A4, (24-O-thyl) for-rham-I] showed a mortality at 400 ppm of 100%. Moreover, in the data set on Aphis gossypii, the mortality at 50 ppm worked out at 99%.
`CC/C=C/[C@H]1CCC[C@H](OC2CC[C@H](N(C)C)[C@@H](C)O2)[C@@H](C)C(=O)C2=CC3C(C=CC4C3C[C@H](O[C@@H]3O[C@@H](C)[C@H](OC)[C@@H](OC)[C@H]3OC)[C@H]4OCC)C2CC(=O)O1` (stereo partly shown) [Compound A5, (8-O-ethyl)-for-rham-III] registered a mortality at 400 ppm in the data set with Heliothis virescens [2] (setting [3]) of 100%. Further, the mortality at 50 ppm in the data set on Aphis gossypii amounted to 53%.
As for `CC/C=C/[C@H]1CCC[C@H](OC2CC[C@H](N(C)C)[C@@H](C)O2)[C@@H](C)C(=O)C2=CC3C(C=CC4C[C@@H](O[C@@H]5O[C@@H](C)[C@H](OC)[C@@H](OCCC)[C@H]5OC)CC43)C2CC(=O)O1` (stereo partly shown) [Compound A6, for-(3′-O-n-propylrham)-I], the “Tobacco Budworm Typical … (%)” value with Heliothis virescens [1] (in vivo) stood at 100%. In the data set with Aphis gossypii, the mortality at 50 ppm came to 54%.
In the same order, the values of `CCCC[C@H]1CCC[C@H](O[C@H]2CC[C@H](N(C)C)[C@@H](C)O2)[C@@H](C)C(=O)C2=CC3C4C[C@H](O[C@@H]5O[C@@H](C)[C@H](O)[C@@H](OC)[C@H]5OC)CC4CCC3C2CC(=O)O1` (stereo partly shown) [Compound A14, 5,6,22,23-tetrahydro for-(4′-O-desmethylrham)-I] are 83% and 92%.
For `CCCCC1CCCC(OC2CCC(N(C)C)C(C)O2)C(C)C(=O)C2=CC3C4CC(OC5OC(C)C(OC)C(OCC)C5OC)CC4CCC3C2CC(=O)O1` (stereo not shown) [Compound A15], the “Tobacco Budworm Feeding (96 h) Mortality (%)” value (shortened to “Tobacco Budworm Feeding … (%)”) in the data set with Heliothis virescens [2] (rate 6.25 ppm) is on record as 100%. Further, the “Cotton Aphid mortality (72 h) Mortality (%)” value (“Cotton Aphid mortality … (%)” for short) in the data set with Aphis gossypii was found to be 100%.
On to `CCCCC1CCCC(OC2CCC(N(C)C)C(C)O2)C(C)C(=O)C2=CC3C4CC(OC5OC(C)C(OC)C(OCCC)C5OC)CC4CCC3C2CC(=O)O1` (stereo not shown) [Compound A16], for which the “Tobacco Budworm Feeding … (%)” value with Heliothis virescens [2] (rate 6.25 ppm) amounted to 100%. The “Cotton Aphid mortality … (%)” value with Aphis gossypii was determined as 100%.
`CCOC(C)C=CC1CCCC(OC2CCC(N(C)C)C(C)O2)C(C)C(=O)C2=CC3C(C=CC4CC(OC5OC(C)C(OC)C(OCC)C5OC)CC43)C2CC(=O)O1` (stereo not shown) [Compound A19]: in the data set with Heliothis virescens [2] (rate 400 ppm), the “Tobacco Budworm Feeding … (%)” value was determined as 100%. Besides, in the data set with Aphis gossypii, the “Cotton Aphid mortality … (%)” value was 99%.
Regarding `CCCOC(C)C=CC1CCCC(OC2CCC(N(C)C)C(C)O2)C(C)C(=O)C2=CC3C(C=CC4CC(OC5OC(C)C(OC)C(OCCC)C5OC)CC43)C2CC(=O)O1` (stereo not shown) [Compound A20], the “Tobacco Budworm Feeding … (%)” value with Heliothis virescens [2] (rate 400 ppm) came to 100%. In the data set on Aphis gossypii, the “Cotton Aphid mortality … (%)” value is given as 99%.
The compound `CCCCOC(C)/C=C/C1CCC[C@H](O[C@H]2CC[C@H](N(C)C)[C@@H](C)O2)[C@@H](C)C(=O)C2=CC3C(C=CC4C[C@@H](O[C@@H]5O[C@@H](C)[C@H](OC)[C@@H](OCCCC)[C@H]5OC)CC43)C2CC(=O)O1` (stereo partly shown) [Compound A21, (24-O-n-butyl)-for-(3′-O-n-butylrham)-I] displayed a mortality at 400 ppm in the data set on Heliothis virescens [2] (setting [3]) of 100%. The same compound gave a mortality at 50 ppm in the data set with Aphis gossypii of 59%.
Turning to `CCC=CC1CCCC(OC2CCC(N(C)C)C(C)O2)C(C)C(=O)C2=CC3C4CC(OC5OC(C)C(OC)C(OCC)C5OC)CC4CCC3C2CC(=O)O1` (stereo not shown) [Compound A22], the “Tobacco Budworm Feeding … (%)” value in the data set with Heliothis virescens [2] (rate 400 ppm) is recorded as 100%. Moreover, in the data set with Aphis gossypii, the “Cotton Aphid mortality … (%)” value came to 99%.
Regarding `CCC=CC1CCCC(OC2CCC(N(C)C)C(C)O2)C(C)C(=O)C2=CC3C4CC(OC5OC(C)C(OC)C(OCCC)C5OC)CC4CCC3C2CC(=O)O1` (stereo not shown) [Compound A23], the “Tobacco Budworm Feeding … (%)” value with Heliothis virescens [2] (rate 400 ppm) worked out at 100%. Moreover, the “Cotton Aphid mortality … (%)” value with Aphis gossypii is reported as 100%.
As to `CCC=CC1CCCC(OC2CCC(N(C)C)C(C)O2)C(C)C(=O)C2=CC3C4CC(OC5OC(C)C(OC)C(OCCCC)C5OC)CC4CCC3C2CC(=O)O1` (stereo not shown) [Compound A24], in the data set with Heliothis virescens [2] (rate 400 ppm), the “Tobacco Budworm Feeding … (%)” value is on record as 100%. Moreover, the “Cotton Aphid mortality … (%)” value in the data set with Aphis gossypii is reported as 99%.
For `CCOC(C)CCC1CCCC(OC2CCC(N(C)C)C(C)O2)C(C)C(=O)C2=CC3C4CC(OC5OC(C)C(OC)C(OC)C5OC)CC4CCC3C2CC(=O)O1` (stereo not shown) [Compound A25], in the data set on Heliothis virescens [1] (rate 1 µg/larva, 48 h), the “Tobacco Budworm Typical … (%)” value is 83%. For the same compound, the “Cotton Aphid mortality … (%)” value in the data set on Aphis gossypii was 79%.
Turning to `CC=CC(CC(=O)OC)C1CCCC(OC2CCC(N(C)C)C(C)O2)C(C)C(=O)C2=CC3C(C=CC4CC(OC5OC(C)C(OC)C(OCC)C5OC)CC43)C2CC(=O)O1` (stereo not shown) [Compound A27], the “Tobacco Budworm Typical … (%)” value with Heliothis virescens [1] (rate 1 µg/larva, 48 h) was found to be 100%. The “Cotton Aphid mortality … (%)” value with Aphis gossypii turned out to be 33%.
Consider `CC=CC(CC(=O)N(C)C)C1CCCC(OC2CCC(N(C)C)C(C)O2)C(C)C(=O)C2=CC3C(C=CC4CC(OC5OC(C)C(OC)C(OCC)C5OC)CC43)C2CC(=O)O1` (stereo not shown) [Compound A28], for which, in the data set on Heliothis virescens [2] (rate 400 ppm), the “Tobacco Budworm Feeding … (%)” value was 100%. Further, in the data set with Aphis gossypii, the “Cotton Aphid mortality … (%)” value is reported as 48%.
Consider `CCCCC1CCCC(OC2CCC(N(C)C)C(C)O2)C(C)C(=O)C2=CC3C4CC(OC5OC(C)C(OCC)C(OCC)C5OC)CC4CCC3C2CC(=O)O1` (stereo not shown) [Compound B2, 5,6,22,23-tetrahydro-for-(3′,4′-bis-O-ethylrham)-I], for which, in the data set with Heliothis virescens [1] (rate 1 µg/larva, 48 h), the “Tobacco Budworm Typical … (%)” value was found to be 83%. In addition, the “Cotton Aphid mortality … (%)” value in the data set on Aphis gossypii is given as 97%.
Take `CC/C=C/[C@H]1CCC[C@H](OC2CC[C@H](N(C)C)[C@@H](C)O2)[C@@H](C)C(=O)C2=CC3C4C[C@H](O[C@@H]5O[C@@H](C)[C@H](OC)[C@@H](OC)[C@H]5OC)CC4C4OC4C3C2CC(=O)O1` (stereo partly shown) [Compound C1, 5,6-epoxy-for-rham-I]: the mortality at 400 ppm in the data set with Heliothis virescens [2] (setting [3]) was found to be 100%. In addition, the mortality at 50 ppm with Aphis gossypii stood at 95%.
For the compound `CCC=CC1CCCC(OC2CCC(N(C)CC)C(C)O2)C(C)C(=O)C2=CC3C(C=CC4CC(OC5OC(C)C(OC)C(OC)C5OC)CC43)C2CC(=O)O1` (stereo not shown) [Compound D1], the “Tobacco Budworm Typical … (%)” value in the data set with Heliothis virescens [1] (rate 1 µg/larva, 48 h) stood at 83%.
In the data set with Heliothis virescens [2] (setting [3]), `CC/C=C/C1CCC[C@H](O[C@H]2CC[C@H](N(C)C=O)[C@@H](C)O2)[C@@H](C)C(=O)C2=CC3C(C=CC4C[C@@H](O[C@@H]5O[C@@H](C)[C@H](OC)[C@@H](OC)[C@H]5OC)CC43)C2CC(=O)O1` (stereo partly shown) [Compound D4, (N-formyl)-for-rham-I] returned a mortality at 400 ppm of 100%. In the data set with Aphis gossypii, this compound had a mortality at 50 ppm of 92%.
For `CCC=CC1CCCC(OC2CCC(N(C)C(C)=O)C(C)O2)C(C)C(=O)C2=CC3C(C=CC4CC(OC5OC(C)C(OC)C(OC)C5OC)CC43)C2CC(=O)O1` (stereo not shown) [Compound D5], in the data set on Heliothis virescens [2] (rate 400 ppm), the “Tobacco Budworm Feeding … (%)” value amounted to 100%. For the same compound, the “Cotton Aphid mortality … (%)” value in the data set with Aphis gossypii was 92%.
